The text below walks through data of patent publication EP2029580B1, “NOVEL INDOL-PYRROL DERIVATIVES FOR THE TREATMENT OF PROLIFERATIVE AND INFLAMMATORY DISEASES” (ScheBo Biotech AG, priority 2006, dated 2007).

Assay [1] deals with Ovarialkarzinom (OVXF 550). Kind of assay: Colony assay in soft agar, ovarian carcinoma OVXF 550. The assay is classed as cell-based, menschlichen. The source says: (§1) Im Kolonie-Assay werden Tumorstammzellen von verschiedenen menschlichen Tumorentitäten in Softagar kultiviert und die Ausbildung von Tumorkolonien in An- und Abwesenheiten von der erfindungsgemäßen Substanz (Beispiel 2.1, ggf. als Malat der Beispiel 2.2 oder 2.3) ausgezählt. Insgesamt wurde die Substanz an 25 verschiedenen Tumormodellen getestet. Zu den Tumormodellen gehörten Colon-, Pankreas- und Magenkarzinome, kleinzellige und nicht kleinzellige Lungentumore, Brust-, Ovar- und Nierenkarzinome sowie Melanome. Das breite Spektrum von verschiedenen Tumorentitäten sowie die große Anzahl von Modellen ermöglichen nach der Zellkultur eine erneute Prüfung der Wirksamkeit der Substanz und geben erste Hinweise darauf, ob die Substanz Wirkungsselektivität für bestimmte Tumorentitäten besitzt.
Im gleichen Kolonie-Assay und unter gleichen experimentellen Bedingungen wurden für die erfindungsgemäße Substanz (5-[5-Fluoro-2-oxo-1,2-dihydro-indol-(3Z)-ylidenemythyl]-2,4-dimethyl-1H-pyrrole-3-carboxylic acid (2-diethylamino-ethoxy)-amide (vorzugsweise das Salz der Äpfelsäure, Malate) folgende Werte gefunden: OVXF 550: IC50 = […], IC70 = 21,6 µM

Another assay concerns NK1. Kind of assay: XTT cell proliferation inhibition, NK1. The settings on record: NK1, without pyruvate in the medium; read-out: IC50 ohne Pyrovat. In kind it is cell-based, Ratten. The source says:
(§2) Die Substanzen der Beispiele 2.1 bis 2.3 wurden an verschiedenen Zelllinien in An- und Abwesenheit von Pyruvat im Nährmedium auf ihre proliferationshemmende Wirkung getestet. Die Substanzen wurden jeweils in DMSO gelöst. Anschließend wurde der Wirkstoff in acht Konzentrationsintervallen getestet. Der Berechnung der IC50-Werte lagen in jeder Konzentration acht Einzelwertbestimmungen zugrunde. Der IC50-Wert gibt die Wirkstoffkonzentration an, bei der im Vergleich zur Kontrollgruppe, die ausschließlich mit dem Lösungsmittel DMSO behandelt wurde, eine 50%ige Hemmung der Zellproliferation vorlag.
A general note: Tetrazolium assays rely on reduction of a dye to a coloured formazan, in cell work by metabolically active cells.

In assay [2] the test system is 25 verschiedenen Tumormodellen. The experiment in a line: Colony assay in soft agar, 25 tumour models. The assay is classed as cell-based, menschlichen.
From the text: as §1
(§3) Die Ergebnisse sind in der Figur 1 dargestellt (graphische Analyse der Mittelwerte für die Substanz basierend auf den IC70-Werten). Die Balken stellen die IC70-Konzentrationen im Verhältnis zum Mittelwerte aller IC70-Werte dar. Bei Balken nach links ist der IC70-Wert für das betreffende Modell niedriger als der Mittelwert der IC70-Werte aller Modelle, d.h. diese Modelle sind sensitiver im Vergleich zum Durchschnitt aller Modelle. Balken nach rechts bedeuten höhere IC70-Werte als der Durchschnitt der Modelle und damit eine geringere Sensitivität.

In the next assay the test system is BxPC-3. The experiment in a line: XTT cell proliferation inhibition, BxPC-3. In kind it is cell-based, humane.
From the text: as §2

In the next assay the test system is KBV-600. The experiment in a line: XTT cell proliferation inhibition, KBV-600. The conditions noted are these: KBV-600 (cultured with 600 ng/ml Vinblastin), without pyruvate in the medium; read-out: IC50 ohne Pyrovat. The assay is classed as cell-based.
From the text: as §2

A further assay has as its system HT-29. The experiment in a line: XTT cell proliferation inhibition, HT-29. In kind it is cell-based, humane. The conditions noted are these: read-out: IC50 ohne Pyrovat.
From the text: as §2

In a further assay the test system is MDA-MB-453. The experiment in a line: XTT cell proliferation inhibition, MDA-MB-453. The settings on record: Homo sapiens. In kind it is cell-based, humane.
From the text: as §2

Assay [3] concerns nicht kleinzelliges Lungentumormodell. Kind of assay: Colony assay in soft agar, non-small-cell lung tumour model. The assay is classed as cell-based, menschlichen. The conditions noted are these: most sensitive model.
From the text: as §1, §3

A further assay has as its system Wi-38. The experiment in a line: XTT cell proliferation inhibition, Wi-38. In kind it is cell-based, humane. The conditions noted are these: Homo sapiens; Wi-38, with pyruvate in the medium; read-out: IC50 (XTT) mit Pyrovat.
From the text: as §2

Another assay concerns MCF-7. Kind of assay: XTT cell proliferation inhibition, MCF-7. In kind it is cell-based, humane.
From the text: as §2

A further assay concerns Brusttumormodell. Kind of assay: Colony assay in soft agar, breast tumour model. The assay is classed as cell-based, menschlichen. The conditions noted are these: least sensitive model.
From the text: as §1, §3

Another assay deals with verschiedenen Zelllinien. The experiment in a line: Cell culture proliferation inhibition, summary over all cell lines. The assay is classed as cell-based. The conditions noted are these: span over the cell lines of Table 1; read-out: IC50-Werte.
From the text: as §2

Read-outs that look alike come from different tables or passages of the source.

As for `CCN(CC)CCONC(=O)c1c(C)[nH]c(/C=C2\C(=O)Nc3ccc(F)cc32)c1C` [Beispiel 2.1, 5-[5-Fluoro-2-oxo-1,2-dihydro-indol-(3Z)-ylidenemethyl]-2,4-dimethyl-1H-pyrrole-3-carboxylic acid (2-diethylamino-ethoxy)-amide], the IC70 in assay [1] is 21,6 µM. For the same compound, the IC50 (as a rule, the concentration that gives 50% inhibition) in [1] (substance preferably as malate salt) is 16.7 µM; with NK1, 2 µM; in [2] (mean over all 25 tumour models, read-out: mittlere IC50-Wert) it was 15 µM; with BxPC-3 (Homo sapiens, BxPC-3, with pyruvate in the medium, read-out: IC50 (XTT) mit Pyrovat), 1300 nM; in the assay with BxPC-3 (Homo sapiens, BxPC-3, without pyruvate in the medium, read-out: IC50 ohne Pyrovat) it was 2000 nM; with KBV-600 it was 5 µM. Also, the IC50 was determined as 3500 nM in the assay on HT-29 (Homo sapiens, HT-29, without pyruvate in the medium); 11 µM in the assay on MDA-MB-453 (MDA-MB-453, with pyruvate in the medium, read-out: IC50 (XTT) mit Pyrovat); 7 µM with MDA-MB-453 (MDA-MB-453, without pyruvate in the medium, read-out: IC50 ohne Pyrovat); 4 µM in [3]; 11 µM with Wi-38; 11 µM with MCF-7 (Homo sapiens, MCF7, MCF-7, with pyruvate in the medium, read-out: IC50 (XTT) mit Pyrovat). Further, the IC50 turned out to be 8 µM in the assay on MCF-7 (Homo sapiens, MCF7, MCF-7, without pyruvate in the medium, read-out: IC50 ohne Pyrovat) and 30 µM in the assay with Brusttumormodell (read-out: höchste IC50-Wert). Besides, the “Hemmung der Koloniebildung” value in assay [2] (all 25 models) is listed as “Dosis-abhängigen Hemmung der Koloniebildung”. Moreover, the “mittlere IC70-Wert” value in assay [2] (mean over all 25 tumour models) turned out to be 20 µM. Besides, the IC70-Wert in [3] is on record as 6 µM; with Brusttumormodell it was 40 µM.
For the compound `CCN(CC)CCONC(=O)c1c(C)[nH]c(/C=C2\C(=O)Nc3ccc(F)cc32)c1C` [Beispiel 2.2, N-[2-(diethylamino)ethoxy]-5-[(Z)-(5-Fluoro-1,2-dihydro-2-oxo-3H-indol-3-ylidene)methyl]-2,4-dimethyl-1H-pyrrole-3-carboxamide, (2S)-hydroxybutanedionate (1:0,5)], the IC50 was 2000 nM with BxPC-3 (BxPC-3, with pyruvate in the medium, read-out: IC50 (XTT) mit Pyrovat); 2000 nM in the assay with BxPC-3 (BxPC-3, without pyruvate in the medium, read-out: IC50 ohne Pyrovat); 3000 nM in the assay on HT-29 (Homo sapiens, HT-29, HT-29, without pyruvate in the medium); 8 µM with MDA-MB-453 (MDA-MB-453, MDA-MB-453, with pyruvate in the medium, read-out: IC50 (XTT) mit Pyrovat).
Take `CCN(CC)CCONC(=O)c1c(C)[nH]c(/C=C2\C(=O)Nc3ccc(F)cc32)c1C` [Beispiel 2.3, N-[2-(diethylamino)ethoxy]-5-[(Z)-(5-Fluoro-1,2-dihydro-2-oxo-3H-indol-3-ylidene)methyl]-2,4-dimethyl-1H-pyrrole-3-carboxamide, (2S)-hydroxybutanedionate (1:1)]: the IC50 with NK1 was found to be 4 µM; in the assay with HT-29 (HT-29, without pyruvate in the medium) it was 3000 nM; in the assay with MCF-7 (MCF-7, with pyruvate in the medium, read-out: IC50 (XTT) mit Pyrovat) it was 9 µM; with MCF-7 (MCF-7, without pyruvate in the medium, read-out: IC50 ohne Pyrovat), 10 µM.
Take `CCN(CC)CCONC(=O)c1c(C)[nH]c(/C=C2\C(=O)Nc3ccc(F)cc32)c1C` [SO 272]: in the assay with verschiedenen Zelllinien, the IC50 was in the range of 1 to 11 µM.
In the case of `CCN(CC)CCNC(=O)c1c(C)[nH]c(/C=C2\C(=O)Nc3ccc(F)cc32)c1C` [SU11248, 5-[5-Fluoro-2-oxo-1,2-dihydroindol-(3Z)-ylidenemethyl]-2,4-dimethyl-1H-pyrrole-3-carboxylic Acid (2-Diethylaminoethyl)amide, reference compound], in assay [1], 18 µM corresponded to half-maximal inhibition (IC50) and the IC70 was 26,7 µM.
